Experimental data published in US9113629B2, “4-amino-6-(4-substituted-phenyl)-picolinates and 6-amino-2-(4-substituted-phenyl)-pyrimidine-4-carboxylates and their use as herbicides” (DOW AGROSCIENCES LLC, priority 2013, dated 2015).
Where two headings read alike, the source gives them in different places.

Experiments:
[1] = tested on: Key Grass and Sedge Weeds as well as Grass Crops; assay: Post-emergent Test II herbicidal activity (Table 6); format: in vivo; details: post-emergence, 336 h; for pest or weed control at 70 g/ha: 70 g ai/ha; for pest or weed control at 140 g/ha: 140 g ai/ha
Summary of the method: (§1)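 Injury was rated visually 14 d after treatment on a 0–100% scale against untreated controls. Test compounds, formulated with crop oil concentrate and surfactant and serially diluted down to 1/16× of the top rate, were applied by track sprayer at 187 L/ha onto first- to second-true-leaf seedlings.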

[2] = tested on: Key Broadleaf Weed and Crop Species; assay: Post-emergent Test II herbicidal activity (Table 5); format: in vivo; details: post-emergence, 336 h, 14 days after application; for pest or weed control at 70 g/ha: application rate 70 g ai/ha; for pest or weed control at 140 g/ha: application rate 140 g ai/ha
Summary of the method: as §1

[3] = CYPES: yellow nutsedge (Cyperus esculentus), read-out: Visual Growth Reduction (%) 14 Days After Application, CYPES
[4] = DIGSA: crabgrass (Digitaria sanguinalis), read-out: Visual Growth Reduction (%) 14 Days After Application, DIGSA
[5] = ECHCG: barnyardgrass (Echinochloa crus-galli), read-out: Visual Growth Reduction (%) 14 Days After Application, ECHCG
[6] = ORYSA: rice (Oryza sativa), crop, read-out: Visual Growth Reduction (%) 14 Days After Application, ORYSA
[7] = SETFA: giant foxtail (Setaria faberi), read-out: Visual Growth Reduction (%) 14 Days After Application, SETFA
[8] = SORVU: grain sorghum (Sorghum vulgare), read-out: Visual Growth Reduction (%) 14 Days After Application, SORVU
[9] = TRZSS (wheat, Triticum aestivum), crop, read-out: Visual Growth Reduction (%) 14 Days After Application, TRZSS
[10] = ZEAMX: maize, corn (Zea mays), crop, read-out: Visual Growth Reduction (%) 14 Days After Application, ZEAMX
[11] = ABUTH: velvetleaf (Abutilon theophrasti), read-out: Visual Growth Reduction (%) 14 Days After Application, ABUTH
[12] = AMARE: redroot pigweed (Amaranthus retroflexus), read-out: Visual Growth Reduction (%) 14 Days After Application, AMARE
[13] = BRSNN: oilseed-rape, canola (Brassica napus), read-out: Visual Growth Reduction (%) 14 Days After Application, BRSNN
[14] = CHEAL: lambsquarters (Chenopodium album), read-out: Visual Growth Reduction (%) 14 Days After Application, CHEAL
[15] = EPHHL: wild poinsettia (Euphorbia heterophylla), read-out: Visual Growth Reduction (%) 14 Days After Application, EPHHL
[16] = HELAN: sunflower (Helianthus annuus), read-out: Visual Growth Reduction (%) 14 Days After Application, HELAN
[17] = VIOTR: wild pansy (Viola tricolor), read-out: Visual Growth Reduction (%) 14 Days After Application, VIOTR

SMILES: COC(=O)c1nc(-c2ccc(C#N)c(F)c2)c(F)c(N)c1Cl [Compound 135, methyl 4-amino-3-chloro-6-(4-cyano-3-fluorophenyl)-5-fluoropicolinate]
- pest or weed control at 70 g/ha [1, 3]: 85 to 94%
- pest or weed control at 140 g/ha [1, 3]: 95 to 100%
- pest or weed control at 70 g/ha [1, 4]: 60 to 74%
- pest or weed control at 140 g/ha [1, 4]: 75 to 84%
- pest or weed control at 70 g/ha [1, 5]: 95 to 100%
- pest or weed control at 140 g/ha [1, 5]: 95 to 100%
- pest or weed control at 70 g/ha [1, 6]: 0 to 29%
- pest or weed control at 140 g/ha [1, 6]: 0 to 29%
- pest or weed control at 70 g/ha [1, 7]: 60 to 74%
- pest or weed control at 140 g/ha [1, 7]: 75 to 84%
- pest or weed control at 70 g/ha [1, 8]: 75 to 84%
- pest or weed control at 140 g/ha [1, 8]: 85 to 94%
- pest or weed control at 70 g/ha [1, 9]: 30 to 44%
- pest or weed control at 140 g/ha [1, 9]: 30 to 44%
- pest or weed control at 70 g/ha [1, 10]: 75 to 84%
- pest or weed control at 140 g/ha [1, 10]: 75 to 84%
- pest or weed control at 70 g/ha [2, 11]: 95 to 100%
- pest or weed control at 140 g/ha [2, 11]: 95 to 100%
- pest or weed control at 70 g/ha [2, 12]: 95 to 100%
- pest or weed control at 140 g/ha [2, 12]: 95 to 100%
- pest or weed control at 70 g/ha [2, 13]: 60 to 74%
- pest or weed control at 140 g/ha [2, 13]: 60 to 74%
- pest or weed control at 70 g/ha [2, 14]: 95 to 100%
- pest or weed control at 140 g/ha [2, 14]: 95 to 100%
- pest or weed control at 70 g/ha [2, 15]: 95 to 100%
- pest or weed control at 140 g/ha [2, 15]: 95 to 100%
- pest or weed control at 70 g/ha [2, 16]: 95 to 100%
- pest or weed control at 140 g/ha [2, 16]: 95 to 100%
- pest or weed control at 70 g/ha [2, 17]: 60 to 74%
- pest or weed control at 140 g/ha [2, 17]: 60 to 74%
